Experimental data published in patent US6387909B1, “Thienopyranecarboxamide derivatives” (Recordati S.A. Chemical and Pharmaceutical Company, priority 1999, dated 2002).

Tests used:
[1] = biological target: T1, recombinant α1a-adrenoceptor (Homo sapiens, UniProt P35348); experiment: Radioligand binding ([3H]prazosin) to cloned α1a adrenoceptor; settings: read-out: Affinity (Ki) α1a
T1 construct: expressed in transfected cells
T1 sequence (P35348 1-466): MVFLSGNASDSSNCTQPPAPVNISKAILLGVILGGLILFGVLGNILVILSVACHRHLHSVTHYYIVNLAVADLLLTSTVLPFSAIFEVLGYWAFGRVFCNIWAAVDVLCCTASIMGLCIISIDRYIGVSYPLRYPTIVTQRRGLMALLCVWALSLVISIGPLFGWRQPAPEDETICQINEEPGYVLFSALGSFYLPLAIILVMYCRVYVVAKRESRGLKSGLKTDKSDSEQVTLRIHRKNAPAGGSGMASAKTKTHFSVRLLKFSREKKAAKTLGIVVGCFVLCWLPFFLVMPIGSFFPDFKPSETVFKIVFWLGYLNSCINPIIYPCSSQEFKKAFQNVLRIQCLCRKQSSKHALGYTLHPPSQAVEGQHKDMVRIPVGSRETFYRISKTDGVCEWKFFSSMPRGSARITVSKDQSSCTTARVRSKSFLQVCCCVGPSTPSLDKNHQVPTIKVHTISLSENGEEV
Description: Determination of affinity for cloned subtypes of the α1-adrenoceptor was performed in membranes from cells transfected by electroporation with DNA expressing the genes encoding each α1-adrenoceptor subtype.
Non-specific binding was determined in the presence of 10 μM phentolamine. Incubation was stopped by addition of ice-cold Tris buffer and rapid filtration through Schleicher & Schuell GF52 filters that had been pretreated with 0.2%-polyethyleneimine.
(§1) Data were expressed as mean of Ki.

[2] = biological target: T2, human 5-HT1A-serotoninergic receptor (Homo sapiens, UniProt P08908); experiment: Radioligand binding ([3H]8-OH-DPAT) to cloned 5-HT1A receptor in HeLa cell membranes; settings: read-out: Affinity (Ki) 5-HT1A
T2 construct: expressed in transfected cells; host or cells: HeLa
T2 sequence (P08908 1-422): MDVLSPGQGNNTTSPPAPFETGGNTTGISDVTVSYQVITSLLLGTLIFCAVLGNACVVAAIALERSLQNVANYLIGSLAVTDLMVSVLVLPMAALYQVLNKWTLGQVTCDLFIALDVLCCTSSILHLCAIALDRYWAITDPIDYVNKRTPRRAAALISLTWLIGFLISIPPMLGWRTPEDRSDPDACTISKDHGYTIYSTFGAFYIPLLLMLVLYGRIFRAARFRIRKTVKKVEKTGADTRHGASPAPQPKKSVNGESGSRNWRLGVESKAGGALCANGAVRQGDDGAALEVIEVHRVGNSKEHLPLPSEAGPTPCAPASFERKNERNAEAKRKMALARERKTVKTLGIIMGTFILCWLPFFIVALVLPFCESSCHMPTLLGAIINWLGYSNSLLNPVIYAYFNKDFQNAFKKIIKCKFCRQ
Description: HeLa cells were grown as monolayers in Dulbecco's modified Eagle's medium (DMEM), supplemented with 10% fetal calf serum and gentamicin (100 μg/mL), at 37° C. in 5% CO2. The cells were detached from the growth flask at 95% confluence by a cell scraper and were lysed in a buffer containing ice cold 5 mM Tris, 5 mM EDTA (pH 7.4). The homogenates were centrifuged at 40,000×g for 20 minutes and the membranes were resuspended in a small volume of ice-cold buffer containing 5 mM Tris and 5 mM, EDTA (pH 7.4), and immediately frozen and stored at −70° C. until use.
Non-specific binding was determined in the presence of 10 μM 5-HT. Incubation was stopped by addition of ice-cold Tris buffer and rapid filtration through Schleicher & Schuell GF52 filters that had been pretreated with 0.2%-polyethyleneimine.
as §1

α1L adrenoceptor = biological target: T3, α1L adrenoceptor (Oryctolagus cuniculus, UniProt O02824); experiment: Functional antagonism of noradrenaline-induced contractions of rabbit aorta pretreated with chloroethylclonidine; format: biochemical; settings: NA-induced contractions
T3 sequence (O02824 1-466): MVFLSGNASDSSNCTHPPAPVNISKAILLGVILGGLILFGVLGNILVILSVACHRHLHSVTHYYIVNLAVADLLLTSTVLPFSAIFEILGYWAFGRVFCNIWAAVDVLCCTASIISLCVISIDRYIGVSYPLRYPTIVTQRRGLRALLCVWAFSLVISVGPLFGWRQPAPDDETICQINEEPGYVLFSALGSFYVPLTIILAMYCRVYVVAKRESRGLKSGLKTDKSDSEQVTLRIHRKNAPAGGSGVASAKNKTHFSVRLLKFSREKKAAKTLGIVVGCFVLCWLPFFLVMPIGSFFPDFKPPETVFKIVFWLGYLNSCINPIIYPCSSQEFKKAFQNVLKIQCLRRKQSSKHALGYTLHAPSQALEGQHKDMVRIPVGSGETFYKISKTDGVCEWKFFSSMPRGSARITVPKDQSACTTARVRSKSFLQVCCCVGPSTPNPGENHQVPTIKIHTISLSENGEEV
Description: Adult male New Zealand rabbits were sacrificed by cervical dislocation. The aorta was removed, placed in Krebs-Henseleit buffer and dissected free of adhering tissue. […] Desmethylimipramine (0.1 μM) and corticosterone (1 μM) to block neuronal and extraneuronal uptake of NA, (±)-propranol (1 μM) to block β adrenoceptors and yohimbine (0.1 μM) to block α2 adrenoceptors were added to the buffer.
The preparations were equilibrated for 60 minutes and then primed every 30 minutes with 10 μM NA for three times. The aortic rings were then incubated with the alkylating agent chloroethylclonidine (50 μM) for 30 minutes and then washed extensively three times, over a 30 min period before constructing the NA-concentration/response curve. Following washing, tissue was re-equilibrated for 45 min. Test drug was added and after 30 minutes, a second cumulative-NA-concentration/response curve was constructed. Each antagonist concentration was tested using 2-3 aortic rings from different rabbits.
Dose ratios (i.e., the ratio between the concentrations of noradrenaline required to produce half-maximal response in the presence and in the absence of the test antagonist) were calculated at each concentration of the compounds. The logarithm of these dose ratio −1 was plotted against the logarithm of the compound concentrations (Schild plot) to evaluate the affinity constant Kb.
When only one or two concentrations of the test compounds were utilised, the apparent Kb value was calculated using the formula: Kb=[B]/(DOSE RATIO-1), where B is the antagonist concentration.

Row | Ki [1] [nM] | Ki [2] [nM] | pKb, functional affinity for the α1L adrenoceptor subtype (α1L adrenoceptor) | SMILES
1 | 0.045 | 7.59 | 9.12 | O=C(NCCCN1CCN(c2ccccc2OCC(F)(F)F)CC1)c1csc2c(=O)cc(-c3ccccc3)oc12 [Example 5, 7-Oxo-5-phenyl-N-{3-[4-[2-(2,2,2-trifluoroethoxy)phenyl]-1-piperazinyl]propyl}-7H-thieno[3,2-b]pyran-3-carboxamide]
2 | 0.1 | 4.48 | 8.85 | COc1ccccc1N1CCN(CCCNC(=O)c2csc3c(=O)cc(-c4ccccc4)oc23)CC1 [Example 2, N-{3-[4-(2-Methoxyphenyl)-1-piperazinyl]propyl}-7-oxo-5-phenyl-7H-thieno[3,2-b]pyran-3-carboxamide]
